According to PMC9696494, “Garcixanthone E and Garcimangophenone C: New Metabolites from Garcinia mangostana and Their Cytotoxic and Alpha Amylase Inhibitory Potential” (Life, 2022):

Target: T1, α-amylase
T1 construct: gene AMY2A
Assay: EnzChek Ultra Amylase assay kit, enzyme inhibition
Type: biochemical

SMILES | IC50
COc1cc2oc3cc(O)c(/C=C/C(C)(C)O)c(O)c3c(=O)c2c(CC=C(C)C)c1OC [compound 1, 1,3-dihyroxy-6,7-dimethoxy-2-(3-hydroxy-3-methylbut-1-enyl)-8-(3-methylbut-2-enyl)-xanthone] | 17.8 µM
C[C@@H]1O[C@@H](Oc2cc(O)cc(O)c2C(=O)c2cccc(O)c2)[C@H](O)[C@H](O)[C@H]1O [compound 9, garcimangophenone C] | 12.9 µM
